From patent US20230372498A1, “PLK1 SELECTIVE DEGRADATION INDUCING COMPOUND” (UPPTHERA, priority 2020, published 2023)

Biological target: T1, PLK1 (Homo sapiens, UniProt P53350)
T1 construct: endogenous in cells; host or cells: HeLa
Experiment: PLK1 protein degradation in HeLa cells, Western blotting (PLK1/GAPDH ratio)
Assay type: cell-based
Details: 6 hours compound incubation; for DC50: measured only if the grade of Dmax is A or B; for Dmax: thymidine block and release, 10 points three-fold from 3 μM, PLK1 to GAPDH ratio, read-out: Dmax
Procedure, shortened: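 PLK1 level measured by Western blot as PLK1/GAPDH in HeLa lysates (15 μg protein per lane). Cells were blocked with 2 mM thymidine 24 h, released 4 h, and exposed 6 h to compound, 10 concentrations, 3-fold steps, top 3 μM.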

T1 sequence (P53350 whole entry): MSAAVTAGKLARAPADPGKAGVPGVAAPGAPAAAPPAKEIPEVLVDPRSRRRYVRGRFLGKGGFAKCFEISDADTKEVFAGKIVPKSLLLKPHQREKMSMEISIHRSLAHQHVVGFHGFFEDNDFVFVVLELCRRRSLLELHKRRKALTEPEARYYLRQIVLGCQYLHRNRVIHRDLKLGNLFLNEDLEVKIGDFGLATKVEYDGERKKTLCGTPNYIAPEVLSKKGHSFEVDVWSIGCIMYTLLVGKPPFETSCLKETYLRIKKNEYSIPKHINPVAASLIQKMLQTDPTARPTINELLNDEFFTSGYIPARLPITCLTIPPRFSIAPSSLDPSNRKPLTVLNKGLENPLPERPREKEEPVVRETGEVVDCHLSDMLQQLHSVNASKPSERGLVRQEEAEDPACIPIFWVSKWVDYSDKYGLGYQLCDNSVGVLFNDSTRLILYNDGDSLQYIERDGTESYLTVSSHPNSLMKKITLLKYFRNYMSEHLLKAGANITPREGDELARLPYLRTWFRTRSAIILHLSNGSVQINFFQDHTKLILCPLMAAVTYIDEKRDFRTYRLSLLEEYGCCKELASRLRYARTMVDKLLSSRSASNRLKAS

| DC50 | Dmax | Compound |
| --- | --- | --- |
| ≤ 50 nM | ≥ 80% | COc1cc(C(=O)N[C@H]2CCN(C(=O)CCN3CCN(c4ccc5c(c4)C(=O)N(C4CCC(=O)NC4=O)C5=O)CC3)C2)c(F)cc1Nc1ncc2c(n1)N(C1CCCC1)CC(F)(F)C(=O)N2C (stereo partly drawn) [Compound 136, 4-((9-cyclopentyl-7,7-difluoro-5-methyl-6-oxo-6,7,8,9-tetrahydro-5H-pyrimido[4,5-b][1,4]diazepin-2-yl)amino)-N-((3S)-1-(3-(4-(2-(2,6-dioxopiperidin-3-yl)-1,3-dioxoisoindolin-5-yl)piperazin-1-yl)propanoyl)pyrrolidin-3-yl)-2-fluoro-5-methoxybenzamide] |
| ≤ 50 nM | ≥ 80% | COc1cc(C(=O)N[C@@H]2CCN(C(=O)CCN3CCN(c4ccc5c(c4)C(=O)N(C4CCC(=O)NC4=O)C5=O)CC3)C2)c(F)cc1Nc1ncc2c(n1)N(C1CCCC1)CC(F)(F)C(=O)N2C (stereo partly drawn) [Compound 137, 4-((9-cyclopentyl-7,7-difluoro-5-methyl-6-oxo-6,7,8,9-tetrahydro-5H-pyrimido[4,5-b][1,4]diazepin-2-yl)amino)-N-((3R)-1-(3-(4-(2-(2,6-dioxopiperidin-3-yl)-1,3-dioxoisoindolin-5-yl)piperazin-1-yl)propanoyl)pyrrolidin-3-yl)-2-fluoro-5-methoxybenzamide] |
| ≤ 50 nM | ≥ 80% | COc1cc(C(=O)N[C@@H]2CCN(C(=O)CCCN3CCN(c4ccc5c(c4)C(=O)N(C4CCC(=O)NC4=O)C5=O)CC3)C2)c(F)cc1Nc1ncc2c(n1)N(C1CCCC1)CC(F)(F)C(=O)N2C (stereo partly drawn) [Compound 138, 4-((9-cyclopentyl-7,7-difluoro-5-methyl-6-oxo-6,7,8,9-tetrahydro-5H-pyrimido[4,5-b][1,4]diazepin-2-yl)amino)-N-((3R)-1-(4-(4-(2-(2,6-dioxopiperidin-3-yl)-1,3-dioxoisoindolin-5-yl)piperazin-1-yl)butanoyl)pyrrolidin-3-yl)-2-fluoro-5-methoxybenzamide] |
| ≤ 50 nM | ≥ 80% | COc1cc(C(=O)N[C@@H]2CCN(C(=O)CCCCN3CCN(c4ccc5c(c4)C(=O)N(C4CCC(=O)NC4=O)C5=O)CC3)C2)c(F)cc1Nc1ncc2c(n1)N(C1CCCC1)CC(F)(F)C(=O)N2C (stereo partly drawn) [Compound 139, 4-((9-cyclopentyl-7,7-difluoro-5-methyl-6-oxo-6,7,8,9-tetrahydro-5H-pyrimido[4,5-b][1,4]diazepin-2-yl)amino)-N-((3R)-1-(5-(4-(2-(2,6-dioxopiperidin-3-yl)-1,3-dioxoisoindolin-5-yl)piperazin-1-yl)pentanoyl)pyrrolidin-3-yl)-2-fluoro-5-methoxybenzamide] |
| ≤ 50 nM | ≥ 80% | COc1cc(C(=O)N[C@H]2CCN(C(=O)CCC(=O)N3CCN(c4cccc5c4C(=O)N(C4CCC(=O)NC4=O)C5=O)CC3)C2)c(F)cc1Nc1ncc2c(n1)N(C1CCCC1)CC(F)(F)C(=O)N2C (stereo partly drawn) [Compound 140, 4-((9-cyclopentyl-7,7-difluoro-5-methyl-6-oxo-6,7,8,9-tetrahydro-5H-pyrimido[4,5-b][1,4]diazepin-2-yl)amino)-N-((3S)-1-(4-(4-(2-(2,6-dioxopiperidin-3-yl)-1,3-dioxoisoindolin-4-yl)piperazin-1-yl)-4-oxobutanoyl)pyrrolidin-3-yl)-2-fluoro-5-methoxybenzamide] |
| ≤ 50 nM | ≥ 80% | COc1cc(C(=O)N[C@H]2CCN(C(=O)CCC(=O)N3CCN(c4cccc5c4C(=O)N(C4CCC(=O)NC4=O)C5=O)CC3)C2)ccc1Nc1ncc2c(n1)N(C1CCCC1)CC(F)(F)C(=O)N2C (stereo partly drawn) [Compound 141, 4-((9-cyclopentyl-7,7-difluoro-5-methyl-6-oxo-6,7,8,9-tetrahydro-5H-pyrimido[4,5-b][1,4]diazepin-2-yl)amino)-N-((3S)-1-(4-(4-(2-(2,6-dioxopiperidin-3-yl)-1,3-dioxoisoindolin-4-yl)piperazin-1-yl)-4-oxobutanoyl)pyrrolidin-3-yl)-3-methoxybenzamide] |
| ≤ 500 nM | 60 to 80% | CN1C(=O)C(F)(F)CN(C2CCCC2)c2nc(Nc3ccc(C(=O)N[C@H]4CCN(C(=O)CCC(=O)N5CCN(c6cccc7c6C(=O)N(C6CCC(=O)NC6=O)C7=O)CC5)C4)cc3)ncc21 (stereo partly drawn) [Compound 142, 4-((9-cyclopentyl-7,7-difluoro-5-methyl-6-oxo-6,7,8,9-tetrahydro-5H-pyrimido[4,5-b][1,4]diazepin-2-yl)amino)-N-((3S)-1-(4-(4-(2-(2,6-dioxopiperidin-3-yl)-1,3-dioxoisoindolin-4-yl)piperazin-1-yl)-4-oxobutanoyl)pyrrolidin-3-yl)benzamide] |
| ≤ 500 nM | 60 to 80% | COc1cc(C(=O)N[C@H]2CCN(C(=O)CCCC(=O)N3CCN(c4cccc5c4C(=O)N(C4CCC(=O)NC4=O)C5=O)CC3)C2)c(F)cc1Nc1ncc2c(n1)N(C1CCCC1)CC(F)(F)C(=O)N2C (stereo partly drawn) [Compound 143, 4-((9-cyclopentyl-7,7-difluoro-5-methyl-6-oxo-6,7,8,9-tetrahydro-5H-pyrimido[4,5-b][1,4]diazepin-2-yl)amino)-N-((3S)-1-(5-(4-(2-(2,6-dioxopiperidin-3-yl)-1,3-dioxoisoindolin-4-yl)piperazin-1-yl)-5-oxopentanoyl)pyrrolidin-3-yl)-2-fluoro-5-methoxybenzamide] |
| ≤ 50 nM | ≥ 80% | COc1cc(C(=O)N[C@H]2CCN(C(=O)CCC(=O)N3CCN(c4ccc5c(c4)C(=O)N(C4CCC(=O)NC4=O)C5=O)CC3)C2)c(F)cc1Nc1ncc2c(n1)N(C1CCCC1)CC(F)(F)C(=O)N2C (stereo partly drawn) [Compound 144, 4-((9-cyclopentyl-7,7-difluoro-5-methyl-6-oxo-6,7,8,9-tetrahydro-5H-pyrimido[4,5-b][1,4]diazepin-2-yl)amino)-N-((3S)-1-(4-(4-(2-(2,6-dioxopiperidin-3-yl)-1,3-dioxoisoindolin-5-yl)piperazin-1-yl)-4-oxobutanoyl)pyrrolidin-3-yl)-2-fluoro-5-methoxybenzamide] |
| > 500 nM | 60 to 80% | COc1cc(C(=O)N[C@H]2CCN(C(=O)CCC(=O)N3CCN(c4ccc5c(c4)C(=O)N(C4CCC(=O)NC4=O)C5=O)CC3)C2)ccc1Nc1ncc2c(n1)N(C1CCCC1)CC(F)(F)C(=O)N2C (stereo partly drawn) [Compound 145, 4-((9-cyclopentyl-7,7-difluoro-5-methyl-6-oxo-6,7,8,9-tetrahydro-5H-pyrimido[4,5-b][1,4]diazepin-2-yl)amino)-N-((3S)-1-(4-(4-(2-(2,6-dioxopiperidin-3-yl)-1,3-dioxoisoindolin-5-yl)piperazin-1-yl)-4-oxobutanoyl)pyrrolidin-3-yl)-3-methoxybenzamide] |
| – | < 60% | CN1C(=O)C(F)(F)CN(C2CCCC2)c2nc(Nc3ccc(C(=O)N[C@H]4CCN(C(=O)CCC(=O)N5CCN(c6ccc7c(c6)C(=O)N(C6CCC(=O)NC6=O)C7=O)CC5)C4)cc3)ncc21 (stereo partly drawn) [Compound 146, 4-((9-cyclopentyl-7,7-difluoro-5-methyl-6-oxo-6,7,8,9-tetrahydro-5H-pyrimido[4,5-b][1,4]diazepin-2-yl)amino)-N-((3S)-1-(4-(4-(2-(2,6-dioxopiperidin-3-yl)-1,3-dioxoisoindolin-5-yl)piperazin-1-yl)-4-oxobutanoyl)pyrrolidin-3-yl)benzamide] |
| ≤ 500 nM | 60 to 80% | COc1cc(C(=O)N[C@H]2CCN(C(=O)CCCC(=O)N3CCN(c4ccc5c(c4)C(=O)N(C4CCC(=O)NC4=O)C5=O)CC3)C2)c(F)cc1Nc1ncc2c(n1)N(C1CCCC1)CC(F)(F)C(=O)N2C (stereo partly drawn) [Compound 147, 4-((9-cyclopentyl-7,7-difluoro-5-methyl-6-oxo-6,7,8,9-tetrahydro-5H-pyrimido[4,5-b][1,4]diazepin-2-yl)amino)-N-((3S)-1-(5-(4-(2-(2,6-dioxopiperidin-3-yl)-1,3-dioxoisoindolin-5-yl)piperazin-1-yl)-5-oxopentanoyl)pyrrolidin-3-yl)-2-fluoro-5-methoxybenzamide] |
| ≤ 50 nM | ≥ 80% | COc1cc(C(=O)N[C@H]2CCN(C(=O)CCC(=O)N3CC4(C3)CN(c3cccc5c3C(=O)N(C3CCC(=O)NC3=O)C5=O)C4)C2)c(F)cc1Nc1ncc2c(n1)N(C1CCCC1)CC(F)(F)C(=O)N2C (stereo partly drawn) [Compound 148, 4-((9-cyclopentyl-7,7-difluoro-5-methyl-6-oxo-6,7,8,9-tetrahydro-5H-pyrimido[4,5-b][1,4]diazepin-2-yl)amino)-N-((3S)-1-(4-(6-(2-(2,6-dioxopiperidin-3-yl)-1,3-dioxoisoindolin-4-yl)-2,6-diazaspiro[3.3]heptan-2-yl)-4-oxobutanoyl)pyrrolidin-3-yl)-2-fluoro-5-methoxybenzamide] |
| ≤ 500 nM | 60 to 80% | COc1cc(C(=O)N[C@H]2CCN(C(=O)CCCC(=O)N3CC4(C3)CN(c3cccc5c3C(=O)N(C3CCC(=O)NC3=O)C5=O)C4)C2)c(F)cc1Nc1ncc2c(n1)N(C1CCCC1)CC(F)(F)C(=O)N2C (stereo partly drawn) [Compound 149, 4-((9-cyclopentyl-7,7-difluoro-5-methyl-6-oxo-6,7,8,9-tetrahydro-5H-pyrimido[4,5-b][1,4]diazepin-2-yl)amino)-N-((3S)-1-(5-(6-(2-(2,6-dioxopiperidin-3-yl)-1,3-dioxoisoindolin-4-yl)-2,6-diazaspiro[3.3]heptan-2-yl)-5-oxopentanoyl)pyrrolidin-3-yl)-2-fluoro-5-methoxybenzamide] |
| ≤ 50 nM | ≥ 80% | COc1cc(C(=O)NC2CCN(C(=O)COCCOCCNc3cccc4c3CN(C3CCC(=O)NC3=O)C4=O)C2)c(F)cc1Nc1ncc2c(n1)N(C1CCCC1)CC(F)(F)C(=O)N2C (centres unmarked) [Compound 150, 4-((9-cyclopentyl-7,7-difluoro-5-methyl-6-oxo-6,7,8,9-tetrahydro-5H-pyrimido[4,5-b][1,4]diazepin-2-yl)amino)-N-(1-(2-(2-(2-((2-(2,6-dioxopiperidin-3-yl)-1-oxoisoindolin-4-yl)amino)ethoxy)ethoxy)acetyl)pyrrolidin-3-yl)-2-fluoro-5-methoxybenzamide] |
